# Source: patent US20060223996A1, “IL-12 modulatory compounds” (Synta Pharmaceuticals Corp., priority 2004, published 2006)
# System: IL-12
# Test: Human in vitro assay: inhibition of IL-12 production in IFNγ/LPS- or IFNγ/SAC-stimulated human PBMC or THP-1 cells (ELISA)
# Type: cell-based
# Settings: read-out: IC50 Range (representative in vitro IC50 data)
# Source text: The biological activities of a heterocyclic compound can be evaluated by a number of cell-based assays. One of such assays can be conducted using cells from human peripheral blood mononuclear cells (PBMC) or human monocytic cell line (THP-1). The cells are stimulated with a combination of human interferon-γ (IFNγ) and lipopolysaccharide or a combination of IFNγ and Staphylococcus aureus Cowan I in the presence of a test compound. The level of inhibition of IL-12 production can be measured by determining the amount of p70 by using a sandwich ELISA assay with anti-human IL-12 antibodies. IC50 of the test compound can then be determined. Specifically, PBMC or THP-1 cells are incubated with the test compound. Cell viability was assessed using the bioreduction of MTS [3-(4,5-dimethylthiazol-2-yl)-5-(3-carboxymethoxyphenyl)-2-(4-sulfophenyl)-2H-tetrazolium](Promega, Madison, Wis.).
# Human In Vitro Assay. Human PBMC were isolated by centrifugation using Ficoll-Paque (Pharmacia Biotech, Uppsala, Sweden) and prepared in RPMI medium supplemented with 10% fetal calf serum (FCS), 100 U/mL penicillin, and 100 μg/mL streptomycin. PBMC were plated in wells of a 96-well plate at a concentration of 5×10^5 cells/well, and primed by adding IFNγ (30 U/mL) for 22 h and stimulated by adding LPS (1 μg/mL), or by adding IFNγ (100 U/mL) and then stimulated by adding SAC (0.01%). A test pyrimidine compound was dissolved in DMSO, and added to wells of the 96-well plate. The final DMSO concentration was adjusted to 0.25% in all cultures, including the compound-free control. Human THP-1 cells were plated in wells, primed by adding IFNγ (100 U/mL) for 22 h and stimulated by adding SAC (0.025%) in the presence of different concentrations of the pyrimidine compound. Cell-free supernatants were taken 18 h later for measurement of cytokines. Cell viability was assessed using the bioreduction of MTS. Cell survival was estimated by determining the ratio of the absorbance in compound-treated groups versus compound-free control.
# The supernatant was assayed for the amount of IL-12p40, IL-12p70, or IL-10 by using a sandwich ELISA with anti-human antibodies, i.e., a Human IL-12 p40 ELISA kit from R&D Systems (Berkeley, Calif.), and a Human IL-12 p70 or IL-10 ELISA kit from Endogen (Cambridge, Mass.). Assays were based on the manufacturer's instructions.
# The biological activities of pyrimidine compounds were tested on human PBMC or THP-1 cells.
row,IC50,Compound
1,< 1000 nM,"Nc1cccc(NC(=O)c2cc(OCCN3CCOCC3)nc(N3CCOCC3)n2)c1 [Compound 277, 2-Morpholin-4-yl-6-(2-morpholin-4-yl-ethoxy)-pyrimidine-4-carboxylic acid (3-amino-phenyl)-amide]"
2,< 1000 nM,"Cc1cccc(NC(=O)c2cc(N(C)CCO)nc(N3CCOCC3)n2)c1 [Compound 298, 6-[(2-Hydroxy-ethyl)-methyl-amino]-2-morpholin-4-yl-pyrimidine-4-carboxylic acid m-tolylamide]"
3,≥ 1000 nM,"O=C(Nc1ccc2ncccc2c1)c1cc(OCCc2ccccn2)nc(N2CCOCC2)n1 [Compound 38, 2-Morpholin-4-yl-6-(2-pyridin-2-yl-ethoxy)-pyrimidine-4-carboxylic acid quinolin-6-ylamide]"
4,< 1000 nM,"CNCCOc1cc(NC(=O)Nc2cccc(C)c2)nc(N2CCOCC2)n1 [Compound 10, 1-[6-(2-Methylamino-ethoxy)-2-morpholin-4-yl-pyrimidin-4-yl]-3-m-tolyl-urea]"
5,≥ 1000 nM,"O=C(Nc1ccc2c(C(F)(F)F)cc(=O)oc2c1)c1cc(NCCN2CCOCC2)nc(N2CCOCC2)n1 [Compound 192, 2-morpholino-6-(2-morpholinoethylamino)-N-(2-oxo-4-(trifluoromethyl)-2H-chromen-7-yl)pyrimidine-4-carboxamide]"
6,< 1000 nM,"CONc1cc(C(=O)Nc2ccc3[nH]c(C)c(C)c3c2)nc(N2CCOCC2)c1 [Compound 161, 4-Methoxyamino-6-morpholin-4-yl-pyridine-2-carboxylic acid (2,3-dimethyl-1H-indol-5-yl)-amide]"
7,< 1000 nM,"Cc1cccc(NC(=O)CNc2cc(C(=O)Nc3ccc4[nH]c(C)c(C)c4c3)nc(N3CCOCC3)n2)c1 [Compound 111, 2-Morpholin-4-yl-6-[(m-tolylcarbamoyl-methyl)-amino]-pyrimidine-4-carboxylic acid (2,3-dimethyl-1H-indol-5-yl)-amide]"
8,< 1000 nM,"CNc1cc(NC(=O)c2cc(OCCN3CCOCC3)nc(N3CCOCC3)n2)ccc1C [Compound 291, 2-Morpholin-4-yl-6-(2-morpholin-4-yl-ethoxy)-pyrimidine-4-carboxylic acid (4-methyl-3-methylamino-phenyl)-amide]"
9,≥ 1000 nM,"COCCN(C)c1cc(C(=O)Nc2ccc(C(C)C)c(C)c2)nc(N2CCOCC2)n1 [Compound 229, 6-[(2-Methoxy-ethyl)-methyl-amino]-2-morpholin-4-yl-pyrimidine-4-carboxylic acid (4-isopropyl-3-methyl-phenyl)-amide]"
10,≥ 1000 nM,"COCCN(C)c1cc(C(=O)Nc2nc3cc(C)c(C)cc3s2)nc(N2CCOCC2)n1 [Compound 203, N-(5,6-dimethylbenzo[d]thiazol-2-yl)-6-((2-methoxyethyl)(methyl)amino)-2-morpholinopyrimidine-4-carboxamide]"
11,< 1000 nM,"O=C(Nc1cc(OCCN2CCOCC2)nc(N2CCOCC2)n1)Nc1nc2ccc(Cl)cc2s1 [Compound 139, 1-(6-Chloro-benzothiazol-2-yl)-3-[2-morpholin-4-yl-6-(2-morpholin-4-yl-ethoxy)-pyrimidin-4-yl]-urea]"
12,≥ 1000 nM,"O=C(Nc1cc(OCCN2CCOCC2)nc(N2CCOCC2)n1)Nc1ccccc1Br [Compound 129, 1-(2-Bromo-phenyl)-3-[2-morpholin-4-yl-6-(2-morpholin-4-yl-ethoxy)-pyrimidin-4-yl]-urea]"
13,≥ 1000 nM,"O=C(Nc1cc(N2CCOCC2)nc(OCCc2ccccn2)n1)c1ccc2[nH]ccc2c1 [Compound 74, 1H-Indole-5-carboxylic acid [6-morpholin-4-yl-2-(2-pyridin-2-yl-ethoxy)-pyrimidin-4-yl]-amide]"
14,≥ 1000 nM,"O=C(Nc1ccc2c(c1)OCO2)Nc1cc(N2CCOCC2)nc(OCCN2CCOCC2)n1 [Compound 123, 1-Benzo[1,3]dioxol-5-yl-3-[6-morpholin-4-yl-2-(2-morpholin-4-yl-ethoxy)-pyrimidin-4-yl]-urea]"
15,< 1000 nM,"Cc1ccc2cc(NC(=O)Nc3cc(OCCN4CCOCC4)nc(N4CCOCC4)n3)ccc2n1 [Compound 136, 1-(2-Methyl-quinolin-6-yl)-3-[2-morpholin-4-yl-6-(2-morpholin-4-yl-ethoxy)-pyrimidin-4-yl]-urea]"
16,≥ 1000 nM,"Cc1cccc(NC(=O)c2cc(OCCc3ccccn3)nc(N3CCOCC3)n2)n1 [Compound 34, 2-Morpholin-4-yl-6-(2-pyridin-2-yl-ethoxy)-pyrimidine-4-carboxylic acid (6-methyl-pyridin-2-yl)-amide]"

row,IC50,Compound
1,≥ 1000 nM,"O=C(Nc1nnc(C2CC2)s1)c1cc(OCCN2CCOCC2)nc(N2CCOCC2)n1 [Compound 163, 2-Morpholin-4-yl-6-(2-morpholin-4-yl-ethoxy)-pyrimidine-4-carboxylic acid (5-cyclopropyl-[1,3,4]thiadiazol-2-yl)-amide]"
2,< 1000 nM,"Cc1ccc(NC(=O)c2cc(OCCN3CCOCC3)nc(N3CCOCC3)n2)cc1N(C)C [Compound 290, 2-Morpholin-4-yl-6-(2-morpholin-4-yl-ethoxy)-pyrimidine-4-carboxylic acid (3-dimethylamino-4-methyl-phenyl)-amide]"
3,< 1000 nM,"Cc1cc(C)cc(NC(=O)c2cc(OCCN3CCOCC3)nc(N3CCOCC3)n2)c1 [Compound 282, 2-Morpholin-4-yl-6-(2-morpholin-4-yl-ethoxy)-pyrimidine-4-carboxylic acid (3,5-dimethyl-phenyl)-amide]"
4,< 1000 nM,"O=C(Nc1cccc(Cl)c1)Nc1cc(OCCN2CCOCC2)nc(N2CCOCC2)n1 [Compound 126, 1-(3-Chloro-phenyl)-3-[2-morpholin-4-yl-6-(2-morpholin-4-yl-ethoxy)-pyrimidin-4-yl]-urea]"
5,≥ 1000 nM,"O=C(Nc1cccc([N+](=O)[O-])c1)c1cc(OCCN2CCOCC2)nc(N2CCOCC2)n1 [Compound 276, 2-Morpholin-4-yl-6-(2-morpholin-4-yl-ethoxy)-pyrimidine-4-carboxylic acid (3-nitro-phenyl)-amide]"
6,≥ 1000 nM,"Cc1cccc(NC(=O)Nc2cc(OCC(C)(C)O)nc(N3CCOCC3)n2)c1 [Compound 11, 1-[6-(2-Hydroxy-2-methyl-propoxy)-2-morpholin-4-yl-pyrimidin-4-yl]-3-m-tolyl-urea]"
7,≥ 1000 nM,"COCCN(C)c1cc(C(=O)Nc2cc(C)ns2)nc(N2CCOCC2)n1 [Compound 239, 6-[(2-Methoxy-ethyl)-methyl-amino]-2-morpholin-4-yl-pyrimidine-4-carboxylic acid (3-methyl-isothiazol-5-yl)-amide]"
8,< 1000 nM,"Cc1[nH]c2ccc(NC(=O)c3cc(N(C)CCO)nc(N4CCOCC4)n3)cc2c1C [Compound 189, N-(2,3-dimethyl-1H-indol-5-yl)-6-((2-hydroxyethyl)(methyl)amino)-2-morpholinopyrimidine-4-carboxamide]"
9,≥ 1000 nM,"CCN(CC)c1cccc(NC(=O)c2cc(OCCN3CCOCC3)nc(N3CCOCC3)n2)c1 [Compound 300, 2-Morpholin-4-yl-6-(2-morpholin-4-yl-ethoxy)-pyrimidine-4-carboxylic acid (3-diethylamino-phenyl)-amide]"
10,≥ 1000 nM,"O=C1COc2ccc(NC(=O)c3cc(OCCN4CCOCC4)nc(N4CCOCC4)n3)cc2N1 [Compound 199, 2-morpholino-6-(2-morpholinoethoxy)-N-(3-oxo-3,4-dihydro-2H-benzo[b][1,4]oxazin-6-yl)pyrimidine-4-carboxamide]"
11,< 1000 nM,"CCc1c(C)[nH]c2ccc(NC(=O)Nc3cc(N4CCN(c5ccccn5)CC4)nc(N4CCOCC4)n3)cc12 [Compound 269, 1-(3-ethyl-2-methyl-1H-indol-5-yl)-3-(2-morpholino-6-(4-(pyridin-2-yl)piperazin-1-yl)pyrimidin-4-yl)urea]"
12,≥ 1000 nM,"COc1cccc(NC(=O)c2cc(OCCN3CCOCC3)nc(N3CCOCC3)n2)c1 [Compound 279, 2-Morpholin-4-yl-6-(2-morpholin-4-yl-ethoxy)-pyrimidine-4-carboxylic acid (3-methoxy-phenyl)-amide]"
13,< 1000 nM,O=C(Nc1cccc(Br)c1)Nc1cc(N2CCOCC2)nc(OCCN2CCOCC2)n1 [Compound 118]
14,< 1000 nM,"O=C(Nc1ccc2[nH]c3c(c2c1)CCCC3)c1cc(OCCN2CCOC2=O)nc(N2CCOCC2)n1 [Compound 223, 2-Morpholin-4-yl-6-[2-(2-oxo-oxazolidin-3-yl)-ethoxy]-pyrimidine-4-carboxylic acid (6,7,8,9-tetrahydro-5H-carbazol-3-yl)-amide]"
15,< 1000 nM,"Cc1c[nH]c2ccc(NC(=O)c3cc(N4CCC(O)CC4)nc(N4CCOCC4)n3)cc12 [Compound 187, 6-(4-Hydroxy-piperidin-1-yl)-2-morpholin-4-yl-pyrimidine-4-carboxylic acid (3-methyl-1H-indol-5-yl)-amide]"
